In the test the target is C619A GlcB (malate synthase) (Mycobacterium tuberculosis, UniProt P9WK17, C619A).

pIC50: −log10 of the molar value. Where two headings read alike, the source gives them in different places.

For `O=C(O)C(=O)CC(=O)c1ccccc1F` [Compound 2], the pIC50 was 6.62.
Consider `O=C(O)C(=O)CC(=O)c1ccccc1Cl` [Compound 3], for which the pIC50 was 6.30.
With `O=C(O)C(=O)CC(=O)c1cccc(Cl)c1` [Compound 6], the pIC50 is 6.77.
In turn, `Cc1ccc(C(=O)CC(=O)C(=O)O)cc1` [Compound 8] gave a pIC50 of 5.22. The pIC50 (read-out: IC50 against GlcB) was 5.24.
The like results for `O=C(O)C(=O)CC(=O)c1ccc(Br)cc1` [Compound 9] were, in that order, 5.24 and 5.22.

The values are drawn from PMC3530165 (Chemistry & biology, 2012).
